Patent US9920036B2, “Cyanoamino (aza)benzofuran compounds for the treatment of hepatitis C” (BRISTOL-MYERS SQUIBB COMPANY, priority 2014, dated 2018)

Tested on: genotype 1b (Con-1) HCV replicon
Assay: HCV replicon luciferase assay
Type: cell-based
Details: Hepatitis C virus, 72 h; Huh-7 cells with genotype 1b HCV replicon, Renilla luciferase, 3 days incubation; read-out: EC50 1b (class)
Protocol: Cell lines. The cell lines used to evaluate compounds consist of a human hepatocyte derived cell line (Huh-7) that constitutively expresses a genotype 1b (Con-1) HCV replicon or a genotype 1b (Con-1) HCV replicon with an asparagine replacing the cysteine at amino acid 316, or a genotype 2a (JFH-1) replicon, containing a Renilla luciferase reporter gene. These cells were maintained in Dulbecco's modified Eagle medium (DMEM) containing 10% FBS, 100 U/mL penicillin/streptomycin and 1.0 mg/mL G418.
HCV replicon luciferase assay. To evaluate compound efficacy, titrated compounds were transferred to sterile 384-well tissue culture treated plates, and the plates were seeded with HCV replicon cells (50 μL at a density of 2.4×10^3 cells/well) in DMEM containing 4% FBS (final DMSO concentration at 0.5%). After 3 days incubation at 37° C., cells were analyzed for Renilla Luciferase activity using the EnduRen substrate (Promega cat #E6485) according to the manufacturer's directions. Briefly, the EnduRen substrate was diluted in DMEM and then added to the plates to a final concentration of 7.5 μM. The plates were incubated for at least 1 h at 37° C. then read on a Viewlux Imager (PerkinElmer) using a luminescence program. The 50% effective concentration (EC50) was calculated using the four-parameter logistic formula noted above.
Compound EC50 data is expressed as A: <100 nM; B=100-1000 nM; C>1000 nM).

Compound | EC50 [µM]
CCN(C#N)c1cc2oc(-c3ccc(F)cc3)c(C(=O)NC)c2cc1-c1cccc(C(=O)NC(C)(CO)CO)c1 [Compound 1011] | 0.1 to 1
CCN(C#N)c1cc2oc(-c3ccc(F)cc3)c(C(=O)NC)c2cc1-c1cccc(C(=O)NC2(c3ncccn3)CC2)c1 [Compound 1013] | < 0.1
CCN(C#N)c1cc2oc(-c3ccc(F)cc3)c(C(=O)NC)c2cc1-c1ccc(OC)c(C(=O)NC(C)(C#N)C(C)C)c1 (stereo not shown) [Compound 1014] | < 0.1
CCN(C#N)c1cc2oc(-c3ccc(F)cc3)c(C(=O)NC)c2cc1-c1ccc(OC)c(C(=O)NC2(C#N)CCCC2)c1 [Compound 1008] | < 0.1
CCN(C#N)c1cc2oc(-c3ccc(F)cc3)c(C(=O)NC)c2cc1-c1cccc(C(=O)NC(C)(C)CC(C)O)c1 (stereo not shown) [Compound 1004] | < 0.1
CCN(C#N)c1cc2oc(-c3ccc(F)cc3)c(C(=O)NC)c2cc1-c1cccc(C(=O)NCC(C)(C)c2ccccc2)c1 [Compound 1001] | < 0.1
CCN(C#N)c1cc2oc(-c3ccc(F)cc3)c(C(=O)NC)c2cc1-c1cccc(C(=O)NC2(C#N)CCC2)c1 [Compound 1015] | < 0.1
[2H]C([2H])([2H])C(NC(=O)c1cc(-c2cc3c(C(=O)NC)c(-c4ccc(F)cc4)oc3cc2N(C#N)CC)ccc1OC)(C([2H])([2H])[2H])C([2H])([2H])[2H] [Compound 1017] | < 0.1
CCN(C#N)c1cc2oc(-c3ccc(F)cc3)c(C(=O)NC)c2cc1-c1cccc(C(=O)NC2(C(F)(F)F)CC2)c1 [Compound 1010] | < 0.1
CCN(C#N)c1cc2oc(-c3ccc(F)cc3)c(C(=O)NC)c2cc1-c1cccc(C(=O)NC(C)(C)COC)c1 [Compound 1006] | < 0.1
CCN(C#N)c1cc2oc(-c3ccc(F)cc3)c(C(=O)NC)c2cc1-c1cccc(C(=O)NCC(F)(F)C(F)(F)C(F)(F)C(F)(F)F)c1 [Compound 1002] | < 0.1
CCN(C#N)c1cc2oc(-c3ccc(F)cc3)c(C(=O)NC)c2cc1-c1cccc(C2=NC(C)(C)C(=O)O2)c1 [Compound 1012] | 0.1 to 1
CCN(C#N)c1cc2oc(-c3ccc(F)cc3)c(C(=O)NC)c2cc1-c1cccc(C(=O)NC(C)(C)C#N)c1 [Compound 1007] | < 0.1
CCN(C#N)c1cc2oc(-c3ccc(F)cc3)c(C(=O)NC)c2cc1-c1ccc(OC)c(C(=O)NC(CF)(CF)CF)c1 [Compound 1003] | < 0.1
CCN(C#N)c1cc2oc(-c3ccc(F)cc3)c(C(=O)NC)c2cc1-c1cccc(C(=O)NC(C)(C)C(=O)OC)c1 [Compound 1016] | < 0.1
CCN(C#N)c1cc2oc(-c3ccc(F)cc3)c(C(=O)NC)c2cc1-c1cccc(C(=O)NC(C)(C)CO)c1 [Compound 1005] | < 0.1
CCN(C#N)c1cc2oc(-c3ccc(F)cc3)c(C(=O)NC)c2cc1-c1ccc(F)c(C(=O)NC2(c3ncccn3)CC2)c1 [Compound 1009] | < 0.1

Same assay, conditions: Hepatitis C virus, 72 h; Huh-7 cells with genotype 1b HCV replicon, Renilla luciferase, 3 days incubation; read-out: EC50 (μM) 1b

Compound | EC50 [µM]
CCN(C#N)c1cc2oc(-c3ccc(F)cc3)c(C(=O)NC)c2cc1-c1cccc(C(=O)NC(C)(C)CC(C)O)c1 (stereo not shown) [Compound 1004] | 0.013
[2H]C([2H])([2H])C(NC(=O)c1cc(-c2cc3c(C(=O)NC)c(-c4ccc(F)cc4)oc3cc2N(C#N)CC)ccc1OC)(C([2H])([2H])[2H])C([2H])([2H])[2H] [Compound 1017] | 0.0039
CCN(C#N)c1cc2oc(-c3ccc(F)cc3)c(C(=O)NC)c2cc1-c1cccc(C(=O)NCC(F)(F)C(F)(F)C(F)(F)C(F)(F)F)c1 [Compound 1002] | 0.047
CCN(C#N)c1cc2oc(-c3ccc(F)cc3)c(C(=O)NC)c2cc1-c1cccc(C2=NC(C)(C)C(=O)O2)c1 [Compound 1012] | 0.36
CCN(C#N)c1cc2oc(-c3ccc(F)cc3)c(C(=O)NC)c2cc1-c1cccc(C(=O)NC(C)(C)C#N)c1 [Compound 1007] | 0.0041

Tested on: HCV
Assay: not given
Details: extended dosing of the combination regimens; cited from earlier work

Compound | hepatic toxicity
CNC(=O)c1c(-c2ccc(F)cc2)oc2cc(N(CCO)S(C)(=O)=O)c(C3CC3)cc12 [HCV-796] | hepatic toxicity observed during extended dosing of the combination regimens

Same assay, conditions: patients; single agent or combined with interferon and ribavirin; cited from earlier work

Compound | HCV RNA levels in patients
CNC(=O)c1c(-c2ccc(F)cc2)oc2cc(N(CCO)S(C)(=O)=O)c(C3CC3)cc12 [HCV-796] | has shown an ability to reduce HCV RNA levels in patients

Tested on: HCV
Assay: not given
Details: combination therapy; cited from earlier work

Compound | sustained efficacy in patients [%]
alpha-interferon and ribavirin | 40
